Measurements from patent US6911443B2 (Bayer Aktiengesellschaft, priority 2000, dated 2005).

What follows are molecules tested against T1, human Syk (GST-Syk) (Homo sapiens, UniProt P43405) (assay: Syk tyrosine kinase inhibitory assay). Details: Table 17; IC50 classes; read-out: Activity grade.
T1 construct: A cDNA fragment encoding human Syk openreading frame was cloned; made in house; host or cells: Sf21 insect cells (baculovirus, transfer vector pAcG2T)
Type: biochemical
Description: [Syk Tyrosine Kinase Inhibitory Assay]
(1) Preparation of Syk Protein
A cDNA fragment encoding human Syk openreading frame was cloned from total RNA of human Burkitt's lymphoma B cell lines, Raji (American Type Culture Collection), with the use of RT-PCR method. The cDNA fragment was inserted into pAcG2T (Pharmingen, San Diego, Calif.) to construct a baculovirus transfer vector. Then the vector, together with the linearized baculovirus (BaculoGold™, Pharmingen), was used to transfect Sf21 cells (Invitrogen, San Diego, Calif.).
Generated recombinant baculovirus was cloned and amplified in Sf21 cells. Sf21 cells were infected with this amplified high titer virus to produce a chimeric protein of Syk kinase fused by glutathione-S-transferase (GST).
The resulting GST-Syk was purified with the use of glutathione column (Amersham Pharmacia Biotech AB, Uppsala, Sweden) according to the manufacturer's instruction.
(2) Synthesize of a Peptide
Next, a peptide fragment of 30 residues including two tyrosine residues, […], was synthesized by a peptide synthesizer. The N-terminal of the fragment was then biotinylated to obtain biotinylated activation loop peptide (AL).
(3) The Measurement of Syk Tyrosine Kinase Activity
All reagents were diluted with the Syk kinase assay buffer (50 mM Tris-HCl (pH 8.0), 10 mM MgCl2, 0.1 mM Na3VO4, 0.1% BSA, 1 mM DTT). First, a mixture (35 μl) including […] of GST-Syk and 0.5 μg of AL was put in each well in 96-well plates. Then 5 μl of a test compound in the presence of 2.5% dimethylsulfoxide (DMSO) was added to each well. To this mixture was added […] (10 μl) to initiate the kinase reaction. The final reaction mixture (50 μl) consists of 0.65 nM GST-Syk, 3 μM AL, 30 μM ATP, a test compound, 0.25% DMSO, and a Syk kinase assay buffer.
The mixture was incubated for 1 hr at room temperature, and the reaction was terminated by the addition of 120 μl of termination buffer (50 mM Tris-HCl (pH 8.0), 10 mMEDTA, 500 mM NaCl, 0.1% BSA). The mixture was transferred to streptavidin-coated plates and incubated for 30 min at room temperature to combine biotin-AL to the plates. After washing the plates with Tris-buffered saline (TBS) (50 mM Tris-HCl (pH 8.0), 138 mM NaCl, 2.7 mM KCl) containing 0.05% Tween-20 for 3 times, 100 μl of antibody solution consisting of 50 mM Tris-HCl (pH 8.0), 138 mM NaCl, 2.7 mM KCl, 1% BSA, 60 ng/ml anti-phosphotyrosine monoclonal antibody, 4G10 (Upstate Biotechnology), which is labeled with europium by Amersham Pharmacia's kit in advance, was added and incubated at room temperature for 60 min. After washing, 100 μl of enhancement solution (Amersham pharmacia Biotech) was added and then time-resolved fluorescence was measured by multi-label counter ARVO (Wallac Oy, Finland) at 340 nm for excitation and 615 nm for emission with 400 msec of delay and 400 msec of window.

IC50 [nM]	Structure (SMILES)
2000 to 10000	COc1ccc(-c2cc3nccn3c(N(C(C)=O)c3ccccc3)n2)cc1OC(C)=O [Example 10]

Same assay, conditions: in vitro; compounds as yielded by solid phase synthesis, purity about 40 to 90%

Activity grade (IC50 class)	Structure (SMILES)
C-D	COC(=O)[C@@H]1CCCN1c1nc(-c2ccc(OC)c(OC)c2)cc2nccn12 [Example 9-71]
C-D	CCOC(=O)CN1CCN(c2nc(-c3ccc(OC)c(OC)c3)cc3nccn23)CC1 [Example 9-73]
C-D	COc1cc(-c2cc3nccn3c(Nc3ccccc3S(N)(=O)=O)n2)ccc1OCCN1CCOCC1 [Example 9-97]

Same assay, conditions: in vitro; compounds as yielded by solid phase synthesis, purity about 40 to 90%; read-out: Activity grade (IC50 class)

Structure (SMILES)	IC50 [nM]
CCOC(=O)N1CCN(c2nc(-c3ccc(OC)c(OC)c3)cc3nccn23)CC1 [Example 9-72]	2000 to 10000
COc1ccc(-c2cc3nccn3c(N(C)C3CCN(C)C3)n2)cc1OC (stereo not shown) [Example 9-74]	500 to 2000
COc1ccc(-c2cc3nccn3c(N3CC[C@H](N(C)C)C3)n2)cc1OC [Example 9-78]	2000 to 10000
COC(=O)[C@H](Cc1c[nH]c2ccccc12)Nc1nc(-c2ccc(OC)c(OC)c2)cc2nccn12 [Example 9-85]	2000 to 10000
COc1ccc(-c2cc3nccn3c(Sc3cccc(C(=O)O)c3)n2)cc1OC [Example 9-93]	500 to 2000
COc1ccc(-c2cc3nccn3c(Sc3ccc(CCC(=O)O)cc3OC)n2)cc1OC [Example 9-94]	< 500
COc1ccc(Nc2nc(-c3ccc(OCCN4CCOCC4)c(OC)c3)cc3nccn23)c(C(N)=O)c1 [Example 9-95]	< 500
COc1ccc(Nc2nc(-c3ccc(OCCN4CCOCC4)c(OC)c3)cc3nccn23)cc1 [Example 9-96]	< 500
COc1ccc(Nc2nc(-c3ccc(N4CCOCC4)c(OC)c3)cc3nccn23)c(C(N)=O)c1 [Example 9-98]	< 500
COc1cc(-c2cc3nccn3c(Nc3ccccc3C(N)=O)n2)ccc1N1CCOCC1 [Example 9-99]	< 500
COc1ccc(-c2cc3ncnn3c(Nc3ccccc3)n2)cc1OC [Example 9.79]	< 500
COc1ccc(-c2cc3nccn3c(N3C(=O)c4ccccc43)n2)cc1OC [Example 9]	2000 to 10000
COc1ccc(-c2cc3nccn3c(N(C(C)=O)c3ccccc3)n2)cc1OC(C)=O [Example 10]	< 500
COc1ccc(-c2cc3nccn3c(Nc3ccccc3C(=O)N(C)C)n2)cc1OC [Example 11-1]	500 to 2000
COc1ccc(-c2cc3nccn3c(Nc3cccc4c3C(=O)NC4=O)n2)cc1OC [Example 11-3]	< 500
COC(=O)C(C)(C)Cc1ccc(Nc2nc(-c3ccc(OC)c(OC)c3)cc3nccn23)cc1 [Example 11-4]	< 500
COc1ccc(-c2cc3nccn3c(Nc3ccc4c(c3)CCC(C(=O)O)C4)n2)cc1OC (stereo not shown) [Example 11-5]	< 500
COc1ccc(-c2cc3nccn3c(N(C)c3ccc(S(=O)(=O)O)cc3)n2)cc1OC [Example 11-6]	2000 to 10000
COc1ccc(-c2cc3nccn3c(Nc3ccccc3OC(F)(F)F)n2)cc1OC [Example 11-10]	500 to 2000
COc1ccc(-c2cc3nccn3c(Nc3ccc(/C=C/C(=O)OC(C)(C)C)cc3C(N)=O)n2)cc1OC [Example 11-14]	< 500
COc1ccc(Nc2nc(-c3ccc(OC)c(OC)c3)cc3ncnn23)cc1 [Example 11-15]	< 500
COc1ccc(-c2cc3nccn3c(N(C)c3ccccc3)n2)cc1OC [Example 11-18]	< 500
COc1ccc(-c2cc3nccn3c(Nc3ccc(SCC(=O)O)cc3)n2)cc1OC [Example 11-20]	< 500
COc1ccc(-c2cc3nccn3c(Nc3ccc(CCCC(=O)O)cc3)n2)cc1OC [Example 11-21]	< 500
COc1ccc(-c2cc3nccn3c(Nc3ccc(C(=O)NCC(=O)O)cc3)n2)cc1OC [Example 11-23]	< 500
COc1ccc(-c2cc3nccn3c(N(C)c3ccccc3OC)n2)cc1OC [Example 11-25]	500 to 2000
COc1ccc(-c2cc3nccn3c(Nc3ccc(N4CCOCC4)cc3)n2)cc1OC [Example 11-32]	< 500

The next lines start with the values.

IC50 [nM]	Structure (SMILES)
500 to 2000	COc1ccc(-c2cc3nccn3c(N3CCSCC3)n2)cc1OC [Example 9-75]
2000 to 10000	COc1ccc(-c2cc3nccn3c(N(C)CCN(C)C)n2)cc1OC [Example 9-76]
2000 to 10000	CCOC(=O)CN(C)c1nc(-c2ccc(OC)c(OC)c2)cc2nccn12 [Example 9-77]
500 to 2000	COc1ccc(CNc2nc(-c3ccc(OC)c(OC)c3)cc3nccn23)c(OC)c1 [Example 9-80]
500 to 2000	COc1ccc(-c2cc3nccn3c(NCCN)n2)cc1OC [Example 9-81]
2000 to 10000	COc1ccc(-c2cc3nccn3c(NCCN3CCCCC3)n2)cc1OC [Example 9-82]
< 500	COc1ccc(-c2cc3nccn3c(NCCc3c[nH]c4ccccc34)n2)cc1OC [Example 9-83]
500 to 2000	COc1ccc(-c2cc3nccn3c(NCCc3ccccn3)n2)cc1OC [Example 9-84]
500 to 2000	COc1ccc(-c2cc3nccn3c(NC3CCCC[C@@H]3N)n2)cc1OC (stereo partly shown) [Example 9-86]
< 500	CCCNc1nc(-c2ccc(OC)c(OC)c2)cc2nccn12 [Example 9-87]
< 500	COC(=O)CSc1nc(-c2ccc(OC)c(OC)c2)cc2nccn12 [Example 9-88]
500 to 2000	CCOC(=O)CSc1nc(-c2ccc(OC)c(OC)c2)cc2nccn12 [Example 9-89]
< 500	COC(=O)CCSc1nc(-c2ccc(OC)c(OC)c2)cc2nccn12 [Example 9-90]
500 to 2000	COc1ccc(-c2cc3nccn3c(SCC(C)C(=O)O)n2)cc1OC (stereo not shown) [Example 9-91]
500 to 2000	CCCCOC(=O)CSc1nc(-c2ccc(OC)c(OC)c2)cc2nccn12 [Example 9-92]
< 500	COc1ccc(Nc2nc(-c3ccc(OC)c(OC)c3)cc3nccn23)c(C)c1 [Example 11-2]
< 500	COc1ccc(-c2cc3nccn3c(Nc3cccc(C)c3)n2)cc1OC [Example 11-7]
< 500	COc1ccccc1Nc1nc(-c2ccc(OC)c(OC)c2)cc2nccn12 [Example 11-8]

IC50 [nM]	Structure (SMILES)
< 500	COc1ccc(-c2cc3nccn3c(Nc3ccc(C)cc3)n2)cc1OC [Example 11-9]
< 500	COc1ccc(-c2cc3nccn3c(Nc3cccc(C(N)=O)c3)n2)cc1OC [Example 11-11]
< 500	COc1ccc(-c2cc3nccn3c(Nc3ccc4[nH]nnc4c3)n2)cc1OC [Example 11-12]
2000 to 10000	COc1ccc(-c2cc3nccn3c(Nc3ccccc3C(=O)NN)n2)cc1OC [Example 11-13]
< 500	COc1ccc(-c2cc3nccn3c(Nc3ccccc3)n2)cc1OC [Example 11-16]
< 500	COc1ccc(Nc2nc(-c3ccc(OC)c(OC)c3)cc3nccn23)cc1 [Example 11-17]
< 500	COc1ccc(-c2cc3nccn3c(Nc3ccc(CC(=O)O)cc3)n2)cc1OC [Example 11-22]
< 500	COc1ccc(-c2cc3nccn3c(Nc3ccc(CCC(=O)O)cc3)n2)cc1OC [Example 11-24]
< 500	COC(=O)c1ccc(Nc2nc(-c3ccc(OC)c(OC)c3)cc3nccn23)cc1 [Example 11-26]
< 500	COc1ccc(-c2cc3nccn3c(Nc3cccc(S(=O)(=O)CCO)c3)n2)cc1OC [Example 11-27]
< 500	COc1ccc(-c2cc3nccn3c(Nc3ccc(C(=O)O)cc3)n2)cc1OC [Example 11-28]
< 500	COc1ccc(-c2cc3nccn3c(Nc3ccc(O)cc3)n2)cc1OC [Example 11-29]
< 500	COc1ccc(-c2cc3nccn3c(Nc3cccc(O)c3)n2)cc1OC [Example 11-30]
< 500	COc1ccc(-c2cc3nccn3c(Nc3ccccc3O)n2)cc1OC [Example 11-31]
< 500	COc1ccc(-c2cc3nccn3c(Nc3ccc([N+](=O)[O-])cc3)n2)cc1OC [Example 11-33]
< 500	COc1ccc(-c2cc3nccn3c(Nc3ccc(N(C)C)cc3)n2)cc1OC [Example 11-34]
< 500	CCC(=O)c1ccc(Nc2nc(-c3ccc(OC)c(OC)c3)cc3nccn23)cc1 [Example 11-35]
< 500	COc1ccc(-c2cc3nccn3c(Nc3ccc(C(N)=O)cc3)n2)cc1OC [Example 11-36]
